Laboratory results taken from paper PMC5030144 (Nature chemical biology, 2016).
Where “and” joins values, the source holds several entries; their conditions need not be identical. Identical values can stand only once.

Assays:
RMS3 [1] = target: T1, RMS3 (Pisum sativum, UniProt A0A109QYD3); assay: Intrinsic tryptophan fluorescence, apparent dissociation coefficient; assay type: binding; settings: apparent Kd from intrinsic fluorescence, mean ± SE of two replicates
T1 sequence (A0A109QYD3 1-267): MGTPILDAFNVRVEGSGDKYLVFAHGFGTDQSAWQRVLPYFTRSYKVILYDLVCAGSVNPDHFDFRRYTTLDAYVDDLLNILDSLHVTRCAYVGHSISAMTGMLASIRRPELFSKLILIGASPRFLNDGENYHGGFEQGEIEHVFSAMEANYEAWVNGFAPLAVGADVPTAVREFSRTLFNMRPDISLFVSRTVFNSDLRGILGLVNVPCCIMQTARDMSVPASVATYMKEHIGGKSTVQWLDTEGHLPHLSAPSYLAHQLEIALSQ

RMS3 [2] = target: T1, RMS3; assay: Differential scanning fluorimetry; assay type: binding; settings: DSF
RMS3 [3] = target: T1, RMS3; assay: Competition test with; assay type: biochemical

In the case of `O=C1C=CC(OC=C2C(=O)OC3c4ccccc4CC23)O1` (racemic) [(±)-4’-desmethyl-2’-epi-GR24], the Kd (RMS3 [1]) is reported as 296 ± 27.9 µM and the “shift in RMS3 melting temperature (destabilization)” value (shortened to “shift in RMS3 melting temperature”) (RMS3 [2]) is reported as “no shift”.

In the case of `O=C1OC2c3ccccc3CC2/C1=C\O` (racemic) [(±)-ABC], the Kd (RMS3 [1]) is reported as 271 ± 29.8 µM, the “mode of inhibition of (±)-GC242 hydrolysis” value (RMS3 [3]; RMS3) is reported as “competitive inhibitor” and the Ki (RMS3 [3]; RMS3, competition test with (±)-GC242, mean ± SE of three replicates) is reported as 28.8 ± 17.6 µM. For the same compound, the “shift in RMS3 melting temperature” value (RMS3 [2]) was “no shift”.

In the case of `Cc1cc(=O)oc2c(F)c(O)c(F)cc12` [DiFMU, 6,8-difluoro-7-hydroxy-4-methylcoumarin], the Kd (RMS3 [1]; Kd) is reported as 20 µM and 19.9 µM and the “shift in RMS3 melting temperature” value (RMS3 [2]) is reported as “small stabilization”.

Compound `CC1=C(C)C(OC=C2C(=O)OC3c4ccccc4CC23)OC1=O` (racemic) [(±)-3’-Me-GR24] has a Kd (RMS3 [1]) of 30.9 ± 5.2 µM.
